Data: US20200046860A1, “Systems and Methods for the Detection of Hydroxychloroquine-Mediated Cardiotoxicity” (Mayo Foundation for Medical Education and Research, priority 2018, published 2020)

Tests used:
[1] = system: cardiac myocytes; assay: Endomyocardial biopsy of patient on hydroxychloroquine; assay type: in vivo, human; conditions: same patient
Protocol: An endomyocardial biopsy was performed on the same subject. […] Amyloid was not present on special stains, including sulfated Alcian blue stain and Congo red stains (C of FIG. 4 and D of FIG. 4, respectively, ×100 original magnification).

[2] = system: heart
Description: Planar scintigraphy (D of FIG. 3) of ^99mTc-PYP uptake allows count comparison between the heart (right) with the contralateral chest (left) on 3-hour uptake anterior planar imaging.

## CCN(CCO)CCCC(C)Nc1ccnc2cc(Cl)ccc12 (stereo not drawn) [hydroxychloroquine]
[1]; light microscopy
  hematoxylin and eosin-stained section finding: marked sarcoplasmic vacuolization of cardiac myocytes
[1]
  toluidine blue-stained thick section finding: dense sarcoplasmic inclusions
[1]; in keeping with hydroxychloroquine-mediated cardiotoxicity
  electron microscopy finding: presence of myelinoid and curvilinear bodies
[1]; sulfated Alcian blue and Congo red stains
  amyloid on special stains: not present
[2]; human, in vivo
  left ventricular wall finding on echocardiogram: concentric left ventricular wall thickening
[2]; patient on hydroxychloroquine for 15 years, abnormal, most preserved at the apex
  global averaged longitudinal peak systolic strain: −10%
